Assay results: US5750534A (priority 1996, dated 1998)
Entries after “also recorded” stand apart in the source; their conditions may differ. Counter-ions that a name gives are not always drawn. Like-named read-outs stand apart in the source and are kept apart here.

Key:
[1] = system: Sprague-Dawley rats (nociceptive threshold); type: in vivo, rat
humans = experiment: Analgesic effect for human intramuscular injection; type: in vivo; details: human i.m.
[2] = system: Sprague-Dawley rats (antinociceptive threshold); experiment: Rat cold ethanol tail-flick test, pharmacodynamic study of nalbuphine arachidate; type: in vivo; details: for analgesic effect (significance): FIGS. 21 and 22
patients (analgesia) = details: 10 mg/65 kg (0.154 mg/kg) i.m., 65-kg patient; cited from earlier work
[3] = plasma half time; FIG. 18
[4] = cited from earlier work; for dosing interval: Hemstrom et al.
[5] = Shafer et al., Anesthesiology 1991; cited from earlier work
humans (analgesia) = experiment: Estimate of human analgesic duration and dose from rat/human dose ratio; details: 1.56 μM/kg i.m., calculated from rat
Water solubility = type: physicochemical
[6] = 25 micromole/kg i.m., prodrugs in sesame oil, Table 2 / FIG. 17
[7] = 25 micromole/kg i.m., Table 2 / FIG. 17

**Q.** Which “10% analgesic effect (time)” value ([1]; rat, in vivo) does the source give for `Oc1ccc2c3c1O[C@H]1[C@@H](O)CC[C@@]4(O)[C@@H](C2)N(CC2CCC2)CC[C@]314` [nalbuphine hydrochloride, reference compound] here?
**A.** 5.0 H

**Q.** And the “10% analgesic effect (time), rat” value ([1]; rat, in vivo)?
**A.** 2.4 h

**Q.** What about the “10% analgesic effect (time), text” value ([1]; rat, in vivo) of the same compound?
**A.** 12 h

**Q.** And the “20% analgesic effect (time)” value ([1]; rat, in vivo)?
**A.** 4.4 H

**Q.** What about the “20% analgesic effect (time), rat” value ([1]; rat, in vivo) of the same compound?
**A.** 2.1 h

**Q.** And the “50% analgesic effect (time)” value ([1]; rat, in vivo)?
**A.** 2.5

**Q.** And the “50% analgesic effect (time), rat” value ([1]; rat, in vivo)?
**A.** 1.1 h

**Q.** And the “10% analgesic effect (time), human” value (humans)?
**A.** 5.0 h

**Q.** And the “20% analgesic effect (time), human” value (humans)?
**A.** 4.4 h

**Q.** What about the “50% analgesic effect (time), human” value (humans; 0.8 nmole/kg as printed) of the same compound?
**A.** 2.5 h

**Q.** And the “analgesic duration (Discussion)” value ([2]; 25 μM/kg (9.86 mg/kg) i.m., rats)?
**A.** about 2 hours

**Q.** What about the “duration of analgesic effect” value ([2]; 25 μM/kg i.m., in 0.9% saline, rats) of the same compound?
**A.** 4 h

**Q.** And the “analgesic effect (significance)” value ([2]; 25 μM/kg i.m.)?
**A.** significant analgesic effects

**Q.** What about the “analgesic duration, clinical” value (patients (analgesia)) of the same compound?
**A.** 2 to 3 h

**Q.** Which results are given for `Oc1ccc2c3c1O[C@H]1[C@@H](O)CC[C@@]4(O)[C@@H](C2)N(CC2CCC2)CC[C@]314` [nalbuphine]?
**A.** amount of released nalbuphine free base (FIG. 15) (between 17 and 28 hours, p<0.05): less in the preparations with sesame oil than with peanut oil ester and the control; release times (FIG. 16) (nalbuphine base versus hydrochloride): significantly increased

**Q.** Which “50% analgesic effect (time)” value [1, 6] does the source give for `CCCCCCCCCC(=O)Oc1ccc2c3c1O[C@H]1[C@@H](O)CC[C@@]4(O)[C@@H](C2)N(CC2CCC2)CC[C@]314` [nalbuphine decanoate] here?
**A.** 6.7 days

**Q.** What about the “20% analgesic effect (time)” value ([1]; 25 micromole/kg i.m., Table 2) of the same compound?
**A.** 7.5 D

**Q.** What about the “10% analgesic effect (time)” value [1, 7] of the same compound?
**A.** 8.2 D

**Q.** And the “increase of duration over nalbuphine hydrochloride” value [3]?
**A.** 30 times

**Q.** With `O=C(CCCN1CCC(O)(c2ccc(Cl)cc2)CC1)c1ccc(F)cc1` [haloperidol] as the compound, how does the dosing interval [4] read?
**A.** 2-4 times a day

**Q.** Which “50% analgesic effect (time)” value [1, 6] does the source give for `CCCCCCC(=O)Oc1ccc2c3c1OC1C(O)CCC4(O)C(C2)N(CC2CCC2)CCC314` (stereo not shown) [nalbuphine enanthate] here?
**A.** 3.9 days

**Q.** What about the “20% analgesic effect (time)” value ([1]; 25 micromole/kg i.m., Table 2) of the same compound?
**A.** 3.4 D

**Q.** And the “10% analgesic effect (time)” value [1, 7]?
**A.** 3.6 D

**Q.** Which results are given for `CC(C)(C)C(=O)Oc1ccc2c3c1OC1C(O)CCC4(O)C(C2)N(CC2CCC2)CCC314` (stereo not shown) [nalbuphine pivalate]?
**A.** 50% analgesic effect (time) [1, 6]: 3.2 days; 20% analgesic effect (time) ([1]; 25 micromole/kg i.m., Table 2): 3.6 D; 10% analgesic effect (time) [1, 7]: 3.8 D

**Q.** For `C#C[C@]1(OC(=O)CCCCCC)CC[C@H]2[C@@H]3CCC4=CC(=O)CC[C@@H]4[C@H]3CC[C@@]21C` [northisterone enanthate], which “dosing interval in words” value ([4]; Joshi et al.) is on record?
**A.** once every 2 months

**Q.** With `CN1CC[C@]23c4c5ccc(O)c4O[C@H]2[C@@H](O)C=C[C@H]3[C@H]1C5` [morphine] as the compound, how does the “dose needed to elicit the same analgesic effect” value (from here on “dose needed”) [5] read?
**A.** 10 mg

**Q.** Which results are given for `CCCCCCCCCCCCCCCCCCCC(=O)Oc1ccc2c3c1OC1C(O)CCC4(O)C(C2)N(CC2CCC2)CCC314` (stereo not shown) [nalbuphine arachidate]?
**A.** estimated analgesic duration in humans (humans (analgesia)): 4 to 5 days; duration of analgesic effect in words ([2]; 25 μM/kg i.m., rats): longer than that of nalbuphine HCl; also recorded: long duration of analgesic effect; also recorded: very long duration of analgesic effect; duration of analgesic effect ([2]; 25 μM/kg i.m., sesame oil suspension, rats): 96 to 120 h; analgesic effect (significance) ([2]; 25 μM/kg i.m.): significant analgesic effects

**Q.** What does the source list for `O=C(Oc1ccc2c3c1OC1C(O)CCC4(O)C(C2)N(CC2CCC2)CCC314)c1ccccc1` (stereo not shown) [nalbuphine benzoate]?
**A.** 50% analgesic effect (time) [1, 6]: 3.5 days; 20% analgesic effect (time) ([1]; 25 micromole/kg i.m., Table 2): 4.0 D; 10% analgesic effect (time) [1, 7]: 4.0 D

**Q.** With `CCCCCCCCCC(=O)OC1(c2ccc(Cl)cc2)CCN(CCCC(=O)c2ccc(F)cc2)CC1` [haloperidol decanoate] as the compound, how does the dosing interval [4] read?
**A.** 1-2 times a month

**Q.** Which water solubility (Water solubility) does the source give for `CCC(=O)Oc1ccc2c3c1OC1C(O)CCC4(O)C(C2)N(CC2CCC2)CCC314` (stereo not shown) [nalbuphine propionate monohydrochloride] here?
**A.** water soluble

**Q.** Which “50% analgesic effect (time)” value [1, 6] does the source give for `CCC(=O)Oc1ccc2c3c1OC1C(O)CCC4(O)C(C2)N(CC2CCC2)CCC314` (stereo not shown) [nalbuphine propionate] here?
**A.** 0.417 days

**Q.** And the “10% analgesic effect (time)” value ([1]; 25 micromole/kg i.m., Table 2)?
**A.** 12 H

**Q.** And the “20% analgesic effect (time)” value ([1]; 25 micromole/kg i.m., Table 2)?
**A.** 11 H

**Q.** Which “dose needed” value [5] does the source give for `Oc1ccc2c(c1)[C@@]13CCCC[C@@]1(O)[C@@H](C2)N(CC1CCC1)CC3` [butorphanol] here?
**A.** 2 mg

**Q.** With `CO[C@]12CC[C@@]3(C[C@@H]1[C@](C)(O)C(C)(C)C)[C@H]1Cc4ccc(O)c5c4[C@@]3(CCN1CC1CC1)[C@H]2O5` [buprenorphine] as the compound, how does the “dose needed” value [5] read?
**A.** 0.3 mg
